According to the supplement of paper PMC8960247:
Where a name gives a salt, the structure may show the parent alone. ± gives the standard error.

How the values were obtained:
621-102 (TSC2-deficient) = experiment: relative viability vs DMSO; higher = less cytotoxic; settings: serum: 10% FBS, 72 h
621-103 (TSC2-rescued) = experiment: as above; settings: serum: 10% FBS, 72 h
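Also: immortalized renal angiomyolipoma cells stably carrying empty vector or TSC2, dosed in 384-well plates in DMEM, viability normalized to vehicle-treated wells within each plate.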

| Compound | relative viability (621-102 (TSC2-deficient); 0.0001 µM) [%] | relative viability (621-102 (TSC2-deficient); 0.001 µM) [%] | relative viability (621-102 (TSC2-deficient); 0.01 µM) [%] | relative viability (621-102 (TSC2-deficient); 0.1 µM) [%] | relative viability (621-102 (TSC2-deficient); 1 µM) [%] | relative viability (621-102 (TSC2-deficient); 10 µM) [%] | relative viability (621-103 (TSC2-rescued); 0.0001 µM) [%] | relative viability (621-103 (TSC2-rescued); 0.001 µM) [%] | relative viability (621-103 (TSC2-rescued); 0.01 µM) [%] | relative viability (621-103 (TSC2-rescued); 0.1 µM) [%] | relative viability (621-103 (TSC2-rescued); 1 µM) [%] | relative viability (621-103 (TSC2-rescued); 10 µM) [%] |
| --- | --- | --- | --- | --- | --- | --- | --- | --- | --- | --- | --- | --- |
| Cc1cc(Nc2cc(N3CCN(C)CC3)nc(/C=C/c3ccccc3)n2)n[nH]1 [ENMD-2076] | 112 ± 2.8 | 98.5 ± 1.7 | 103.4 ± 0.19 | 98.213 ± 0.069 | 81.1 ± 2.8 | 34.56 ± 0.15 | 100.4 ± 0.78 | 100.9 ± 0.97 | 104 ± 1.5 | 102 ± 2.1 | 73 ± 2.3 | 12.7 ± 0.4 |
| COc1cc2c(cc1Cc1cccc(Cl)c1F)c(=O)c(C(=O)O)cn2[C@H](CO)C(C)C [Elvitegravir] | 96.63 ± 0.78 | 107.1 ± 0.31 | 105 ± 3.3 | 106 ± 1.4 | 110 ± 3 | 99.7 ± 3.7 | 101 ± 1.1 | 102 ± 1.9 | 98.96 ± 0.48 | 98.96 ± 0.9 | 101.1 ± 1 | 99.17 ± 0.59 |
| Nc1nc(=O)n([C@@H]2CS[C@H](CO)O2)cc1F [Emtricitabine] | 92.1 ± 2.5 | 90.4 ± 1.3 | 95.4 ± 1 | 88.7 ± 4.1 | 92 ± 9.3 | 83.5 ± 6.5 | 106 ± 1.1 | 110 ± 6.2 | 101 ± 4.7 | 105 ± 2.6 | 100 ± 3.7 | 98.4 ± 1.5 |
| CCOC(=O)[C@H](CCc1ccccc1)N[C@@H](C)C(=O)N1CCC[C@H]1C(=O)O [Enalapril Maleate] | 103 ± 1.4 | 92.6 ± 3.4 | 101.9 ± 0.59 | 101 ± 3.5 | 105 ± 4.1 | 100.5 ± 0.3 | 99 ± 1.8 | 100 ± 2.9 | 89.7 ± 10 | 100 ± 1.5 | 99.6 ± 0.35 | 103 ± 2.4 |
| C[C@H](N[C@@H](CCc1ccccc1)C(=O)O)C(=O)N1CCC[C@H]1C(=O)O [Enalaprilat] | 97.6 ± 3.3 | 100 ± 4.3 | 96.26 ± 0.64 | 98.48 ± 0.16 | 95.91 ± 0.29 | 101.3 ± 0.23 | 101 ± 4 | 101.1 ± 0.31 | 95.29 ± 0.25 | 98.36 ± 0.18 | 101 ± 2.5 | 96.34 ± 0.17 |
| Cn1cc(C2=C(c3cn(C4CCN(Cc5ccccn5)CC4)c4ccccc34)C(=O)NC2=O)c2ccccc21 [Enzastaurin] | 110 ± 3 | 114 ± 1.6 | 107 ± 1.7 | 104 ± 2.2 | 106 ± 4.1 | 98.6 ± 6.9 | 104.1 ± 0.6 | 99.64 ± 0.22 | 102 ± 1.3 | 99.2 ± 0.55 | 102.1 ± 0.61 | 95.6 ± 1.9 |
| CNC[C@H](O)c1ccc(O)c(O)c1 [Epinephrine bitartrate] | 119 ± 1.4 | 118 ± 1.5 | 105 ± 4 | 101 ± 2.4 | 103 ± 1.3 | 100 ± 1.5 | 102 ± 2.1 | 95.4 ± 4.3 | 93.4 ± 4.4 | 92.99 ± 0.3 | 96 ± 1.2 | 95.31 ± 0.25 |
| C/C(=C\c1csc(C)n1)[C@@H]1C[C@@H]2O[C@@H]2CCC[C@H](C)[C@H](O)[C@@H](C)C(=O)C(C)(C)[C@@H](O)CC(=O)O1 [Epothilone A] | 63.5 ± 3 | 47 ± 4 | 31.1 ± 0.38 | 27.3 ± 1.1 | 30.4 ± 0.53 | 34.2 ± 0.53 | 87.3 ± 1.9 | 59.1 ± 2.4 | 44 ± 1.4 | 30.8 ± 0.67 | 26.7 ± 0.62 | 50.59 ± 0.26 |
| C/C(=C\c1csc(C)n1)[C@@H]1C[C@@H]2O[C@]2(C)CCC[C@H](C)[C@H](O)[C@@H](C)C(=O)C(C)(C)[C@@H](O)CC(=O)O1 [Epothilone B (EPIO906)] | 29.4 ± 1.8 | 29.3 ± 0.11 | 27.3 ± 1.2 | 32.2 ± 1.6 | 35.2 ± 2.2 | 37.6 ± 1.2 | 56.73 ± 0.32 | 48.3 ± 0.41 | 38.2 ± 1 | 35.28 ± 0.27 | 48.9 ± 1.2 | 60.1 ± 1.1 |
| C#Cc1cccc(Nc2ncnc3cc(OCCOC)c(OCCOC)cc23)c1 [Erlotinib] | 106.7 ± 1 | 102 ± 3.1 | 107.7 ± 1 | 103 ± 1.4 | 97.8 ± 1.9 | 96.7 ± 3.3 | 99.81 ± 0.92 | 101 ± 1.1 | 104 ± 2.2 | 101.3 ± 0.39 | 101 ± 2.7 | 96.6 ± 3.3 |
| COc1ccc2[nH]c([S@@+]([O-])Cc3ncc(C)c(OC)c3C)nc2c1 [Esomeprazole sodium (Nexium I.V.)] | 93.6 ± 1.3 | 107 ± 6.9 | 107 ± 3.4 | 97.9 ± 3.1 | 91.1 ± 1 | 88.632 ± 0.085 | 111 ± 0.41 | 99.3 ± 0.93 | 101.7 ± 0.45 | 112 ± 4 | 102 ± 2.5 | 86.24 ± 0.28 |
| COc1cc([C@@H]2c3cc4c(cc3[C@@H](O[C@@H]3O[C@@H]5CO[C@@H](C)O[C@H]5[C@H](O)[C@H]3O)[C@H]3COC(=O)[C@H]23)OCO4)cc(OC)c1O [Etoposide (Etopophos)] | 109.8 ± 0.44 | 108.1 ± 0.98 | 114 ± 3.7 | 104 ± 2.5 | 81.3 ± 5.1 | 54.6 ± 2.9 | 99.77 ± 0.28 | 98.19 ± 0.16 | 99.6 ± 1.2 | 98.7 ± 1 | 91.5 ± 2.3 | 55.6 ± 0.8 |
| CO[C@H]1C[C@@H]2CC[C@@H](C)[C@@](O)(O2)C(=O)C(=O)N2CCCC[C@H]2C(=O)O[C@H]([C@H](C)C[C@@H]2CC[C@@H](OCCO)[C@H](OC)C2)CC(=O)[C@H](C)/C=C(\C)[C@@H](O)[C@@H](OC)C(=O)[C@H](C)C[C@H](C)/C=C/C=C/C=C/1C [Everolimus (RAD001)] | 46.7 ± 2.2 | 56.4 ± 1.5 | 49.8 ± 4.2 | 52.7 ± 3.3 | 54.2 ± 3 | 50.3 ± 3.7 | 71.1 ± 3.2 | 69.7 ± 1.3 | 68.2 ± 1.6 | 71.6 ± 2 | 75.3 ± 2.6 | 67.6 ± 0.97 |
| O=S(=O)(c1cccc2cnccc12)N1CCCNCC1 [Fasudil HCl] | 95.7 ± 1.9 | 111.14 ± 0.069 | 100 ± 7.1 | 107.7 ± 0.97 | 110 ± 3.2 | 83.5 ± 3.1 | 102 ± 2.1 | 98.11 ± 0.26 | 99.94 ± 0.62 | 97.3 ± 1.3 | 97.052 ± 0.09 | 101.9 ± 0.26 |
| Cc1nc(-c2ccc(OCC(C)C)c(C#N)c2)sc1C(=O)O [Febuxostat] | 104 ± 2.3 | 104 ± 2.4 | 102.5 ± 0.48 | 105 ± 5.9 | 100.8 ± 0.75 | 99.9 ± 2.2 | 104 ± 2.5 | 100.5 ± 0.98 | 101 ± 2.4 | 102 ± 4 | 98.3 ± 0.27 | 101.3 ± 0.28 |
| CCOC(=O)C1=C(C)NC(C)=C(C(=O)OC)C1c1cccc(Cl)c1Cl (stereo unspecified) [Felodipine] | 103 ± 2.2 | 97.3 ± 5.4 | 101 ± 4.7 | 103 ± 1.5 | 106 ± 1.6 | 117 ± 4.6 | 104.4 ± 0.74 | 100.1 ± 0.68 | 104 ± 3.1 | 98.2 ± 1.4 | 100 ± 1.6 | 106 ± 2.3 |
| COC(=O)Nc1nc2cc(Sc3ccccc3)ccc2[nH]1 [Fenbendazole (Panacur)] | 114 ± 2 | 109.5 ± 0.17 | 98.4 ± 4.1 | 91.8 ± 1.4 | 38.2 ± 1.4 | 39.5 ± 0.88 | 108 ± 3.3 | 102 ± 3.8 | 110.5 ± 0.51 | 102 ± 2.8 | 44.28 ± 0.059 | 40.924 ± 0.025 |
| CC(C)C(=O)Oc1ccc(CO)cc1[C@H](CCN(C(C)C)C(C)C)c1ccccc1 [Fesoterodine fumarate (Toviaz)] | 97.3 ± 5.3 | 100.52 ± 0.035 | 102 ± 1.2 | 109 ± 3.6 | 93.13 ± 0.096 | 94.5 ± 1.9 | 104 ± 1.1 | 105 ± 3 | 106 ± 2.1 | 107 ± 5.6 | 101.2 ± 0.67 | 95.413 ± 0.0029 |
